# Assay results from PubChem BioAssay (NCI).
#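 In this assay, cells in 96-well plates receive the compound at five concentrations for 48 hours. Endpoints are linearly interpolated between the surrounding concentrations. At the TGI there is no net growth.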
# Tests used:
# Assay in all cases: inhibition of tumour cell growth, NCI panel, 48 h
# OVCAR-5 ovarian = tested on: OVCAR-5 ovarian
# M14 melanoma = tested on: M14 melanoma
# MOLT-4 leukemia = tested on: MOLT-4 leukemia
# OVCAR-3 ovarian = tested on: OVCAR-3 ovarian
# HCT-116 colon = tested on: HCT-116 colon
# UACC-62 melanoma = tested on: UACC-62 melanoma
# SF-539 CNS = tested on: SF-539 CNS
# SK-MEL-2 melanoma = tested on: SK-MEL-2 melanoma
# SK-MEL-5 melanoma = tested on: SK-MEL-5 melanoma
# SF-268 CNS = tested on: SF-268 CNS
# TK-10 renal = tested on: TK-10 renal
# SR leukemia = tested on: SR leukemia
# MALME-3M melanoma = tested on: MALME-3M melanoma
# K-562 leukemia = tested on: K-562 leukemia
# NCI-H226 lung = tested on: NCI-H226 lung
# PC-3 prostate = tested on: PC-3 prostate
# MDA-MB-435 = tested on: MDA-MB-435
# BT-549 breast = tested on: BT-549 breast
# HS 578T breast = tested on: HS 578T breast
# T-47D breast = tested on: T-47D breast
SMILES,TGI (OVCAR-5 ovarian),TGI (M14 melanoma),TGI (MOLT-4 leukemia),TGI (OVCAR-3 ovarian),TGI (HCT-116 colon),TGI (UACC-62 melanoma),TGI (SF-539 CNS),TGI (SK-MEL-2 melanoma),TGI (SK-MEL-5 melanoma),TGI (SF-268 CNS),TGI (TK-10 renal),TGI (SR leukemia),TGI (MALME-3M melanoma),TGI (K-562 leukemia),TGI (NCI-H226 lung),TGI (PC-3 prostate),TGI (MDA-MB-435),TGI (BT-549 breast),TGI (HS 578T breast),TGI (T-47D breast)
COc1cc(-c2cc(=O)c3c(O)c(OC)c(OC)c(OC)c3o2)ccc1O,> 100 µM,81.7 µM,93.5 µM,> 100 µM,> 100 µM,34.4 µM,35.9 µM,46.1 µM,47.8 µM,> 100 µM,78.3 µM,> 100 µM,> 100 µM,> 100 µM,–,–,–,–,–,–
CCCc1c[nH]c(-c2ccc(-c3cc(CCC)c(C=O)[nH]3)s2)c1,–,24.5 µM,86.2 µM,30.8 µM,31.9 µM,31.2 µM,32.8 µM,28.5 µM,30.6 µM,34.6 µM,28.7 µM,–,30 µM,49.8 µM,33.3 µM,–,–,–,–,–
O=P1(c2ccccc2)c2ccccc2CCc2ccccc21,–,> 100 µM,> 100 µM,> 100 µM,> 100 µM,> 100 µM,> 100 µM,> 100 µM,> 100 µM,> 100 µM,> 100 µM,–,–,–,> 100 µM,> 100 µM,> 100 µM,> 100 µM,> 100 µM,–
C=C1CCCCCCCCCCC12SCCC2CCCCSC (stereo not given),40 µM,50.1 µM,40.1 µM,34.1 µM,33.9 µM,76 µM,38.3 µM,37.7 µM,33.1 µM,67.4 µM,–,53.4 µM,36.2 µM,44 µM,36.2 µM,56.1 µM,75.7 µM,–,> 100 µM,43.8 µM
CCN(CC)CCCNc1nc(=O)[nH]c(C)c1C(=O)Nc1c2ccccc2nc2ccccc12,> 100 µM,> 100 µM,> 100 µM,51.6 µM,21.7 µM,36.4 µM,41.8 µM,> 100 µM,29 µM,–,> 100 µM,–,45.1 µM,> 100 µM,93.8 µM,> 100 µM,> 100 µM,–,–,73.5 µM
Cc1ccc(/C(=C\C(=O)C(=O)NC23CC4CC(CC(C4)C2)C3)Sc2ccccc2)cc1,> 10 µM,> 10 µM,> 10 µM,> 10 µM,–,–,> 10 µM,> 10 µM,> 10 µM,> 10 µM,> 10 µM,> 10 µM,> 10 µM,> 10 µM,> 10 µM,> 10 µM,> 10 µM,–,> 10 µM,> 10 µM
CCCCCC[C@H]1CC(=O)C2CCCC[C@@]23CC[C@H](CCl)N13 (stereo not given in full) (tested in a mixture with another compound),> 100 µM,> 100 µM,–,> 100 µM,> 100 µM,> 100 µM,> 100 µM,> 100 µM,50.7 µM,> 100 µM,> 100 µM,–,> 100 µM,> 100 µM,–,90.6 µM,> 100 µM,–,60.4 µM,–
O=C(O)c1ccc(-c2nc3ccc(Cl)cc3[nH]2)cc1,–,> 100 µM,> 100 µM,> 100 µM,–,–,> 100 µM,> 100 µM,> 100 µM,–,–,> 100 µM,–,> 100 µM,> 100 µM,> 100 µM,–,> 100 µM,> 100 µM,> 100 µM
Cc1c(-c2nnc(-c3ccc(Cl)cc3)o2)c(=O)n(-c2ccccc2)n1C,–,> 100 µM,> 100 µM,> 100 µM,> 100 µM,> 100 µM,90.1 µM,> 100 µM,–,> 100 µM,> 100 µM,> 100 µM,> 100 µM,> 100 µM,> 100 µM,–,–,–,–,–
O=C(O)c1cc2cc(c1)N=Cc1ccccc1OCc1cccc(n1)COc1ccccc1C=N2,> 25 µM,> 25 µM,> 25 µM,13.2 µM,> 25 µM,> 25 µM,> 25 µM,> 25 µM,–,> 25 µM,> 25 µM,> 25 µM,22.4 µM,> 25 µM,> 25 µM,> 25 µM,8.25 µM,> 25 µM,13.1 µM,–
COc1ccc(/C=C2\N=C3Sc4c(nc[nH]c4=O)N3C2=O)cc1,> 100 µM,> 100 µM,> 100 µM,> 100 µM,> 100 µM,–,> 100 µM,> 100 µM,> 100 µM,> 100 µM,> 100 µM,–,> 100 µM,> 100 µM,> 100 µM,> 100 µM,> 100 µM,–,> 100 µM,> 100 µM
O=C1CCCC/C1=C1\C(=O)Nc2cc(F)ccc21,> 100 µM,> 100 µM,> 100 µM,–,> 100 µM,> 100 µM,> 100 µM,> 100 µM,> 100 µM,> 100 µM,> 100 µM,–,> 100 µM,> 100 µM,> 100 µM,–,–,–,–,–
O=C(O)Cc1cccc2c1Oc1ccccc1S2,–,> 100 µM,> 100 µM,> 100 µM,> 100 µM,> 100 µM,> 100 µM,> 100 µM,> 100 µM,> 100 µM,> 100 µM,–,> 100 µM,> 100 µM,> 100 µM,–,–,–,–,–
CC(=O)OC(C)c1cc2c(s1)C(=O)c1scc(C(C)OC(C)=O)c1C2=O (stereo not given),2.74 µM,0.238 µM,–,–,0.838 µM,0.418 µM,0.36 µM,–,0.208 µM,0.504 µM,1.83 µM,–,0.288 µM,> 100 µM,4.04 µM,–,0.0815 µM,0.426 µM,1.41 µM,2.1 µM
COc1cc(=O)n2c3ccccc3n(C)c2c1C#N,> 100 µM,> 100 µM,> 100 µM,> 100 µM,> 100 µM,> 100 µM,> 100 µM,> 100 µM,> 100 µM,> 100 µM,> 100 µM,> 100 µM,> 100 µM,> 100 µM,> 100 µM,> 100 µM,> 100 µM,> 100 µM,> 100 µM,–
COCc1cc2c(cc1/C(=C/[N+](=O)[O-])CS(=O)(=O)c1ccccc1)OCO2,> 100 µM,> 100 µM,> 100 µM,> 100 µM,> 100 µM,> 100 µM,> 100 µM,–,> 100 µM,> 100 µM,> 100 µM,> 100 µM,–,> 100 µM,> 100 µM,–,> 100 µM,–,> 100 µM,> 100 µM
CCC1(CCSC(=N)N)C(=O)NC(=O)NC1=O,> 100 µM,> 100 µM,> 100 µM,> 100 µM,> 100 µM,> 100 µM,> 100 µM,> 100 µM,> 100 µM,> 100 µM,> 100 µM,> 100 µM,> 100 µM,> 100 µM,> 100 µM,> 100 µM,> 100 µM,> 100 µM,> 100 µM,–
CC(=O)C1=C(C)Cn2c(=O)c3ccccc3c(=O)n2C1,> 100 µM,> 100 µM,> 100 µM,> 100 µM,> 100 µM,–,> 100 µM,> 100 µM,> 100 µM,> 100 µM,> 100 µM,> 100 µM,> 100 µM,> 100 µM,> 100 µM,–,–,–,–,–
N#C/C(=C\c1ccc(O)c(O)c1)C(=O)NC1CCC(CC2CCC(NC(=O)/C(C#N)=C/c3ccc(O)c(O)c3)CC2)CC1 (stereo not given),4.09 µM,6.83 µM,> 57.5 µM,3.96 µM,0.642 µM,3.07 µM,2.67 µM,3.89 µM,12.8 µM,5.46 µM,> 54.7 µM,3.36 µM,15 µM,4.93 µM,14.3 µM,–,–,–,–,–
CCCCOC(=O)NC(Nc1ccc(S(=O)(=O)Nc2ccc(OC)nn2)cc1)(C(F)(F)F)C(F)(F)F,> 100 µM,> 100 µM,> 100 µM,> 100 µM,> 100 µM,> 100 µM,> 100 µM,–,> 100 µM,> 100 µM,> 100 µM,> 100 µM,> 100 µM,> 100 µM,> 100 µM,> 100 µM,> 100 µM,–,–,> 100 µM
Cc1cccc(/C=C2\CCCc3ccccc3C2=O)c1,31.6 µM,34.6 µM,68.6 µM,78.7 µM,31.2 µM,27.5 µM,34.4 µM,30.8 µM,–,29.6 µM,> 100 µM,40.3 µM,35.3 µM,48.8 µM,40.8 µM,> 100 µM,37 µM,75.6 µM,32.6 µM,–
CCCCCCCCOC(CO)CO,> 100 µM,> 100 µM,> 100 µM,> 100 µM,> 100 µM,> 100 µM,–,–,> 100 µM,> 100 µM,> 100 µM,> 100 µM,> 100 µM,> 100 µM,> 100 µM,–,–,–,–,–
O=c1[nH]c(=O)n(C2OC(CO)C(O)C2O)c2ccsc12 (stereo not given),> 100 µM,> 100 µM,> 100 µM,> 100 µM,> 100 µM,–,> 100 µM,> 100 µM,> 100 µM,> 100 µM,> 100 µM,> 100 µM,> 100 µM,> 100 µM,> 100 µM,> 100 µM,> 100 µM,> 100 µM,> 100 µM,–
C=CCC(CC=O)(C(=O)OCC)C(=O)OCC,> 100 µM,> 100 µM,> 100 µM,> 100 µM,> 100 µM,> 100 µM,> 100 µM,> 100 µM,> 100 µM,> 100 µM,> 100 µM,> 100 µM,> 100 µM,> 100 µM,> 100 µM,> 100 µM,> 100 µM,–,> 100 µM,–
ClCCN1CCOC1=Nc1ccc2c(c1)CCCC2,32.4 µM,33 µM,39.9 µM,29.3 µM,26.8 µM,27.9 µM,17.9 µM,38.1 µM,7.38 µM,47.7 µM,–,61.1 µM,20.8 µM,> 100 µM,30.9 µM,23 µM,29.2 µM,–,72 µM,41.1 µM
CC1(C)CC(=O)C2=C(C1)S/C(=C1/SC3=C(S1)C(=O)CC(C)(C)C3)S2,–,> 251 µM,> 251 µM,> 251 µM,> 251 µM,> 251 µM,> 251 µM,> 251 µM,–,> 251 µM,> 251 µM,> 251 µM,> 251 µM,> 251 µM,–,–,–,–,–,–
CCOC(=O)C(C)(C(=O)OCC)/C(Cl)=C\Cl,> 100 µM,> 100 µM,> 100 µM,> 100 µM,> 100 µM,> 100 µM,> 100 µM,–,> 100 µM,> 100 µM,> 100 µM,> 100 µM,> 100 µM,> 100 µM,> 100 µM,> 100 µM,> 100 µM,–,> 100 µM,> 100 µM
COc1ccc2c3c(n(Cc4ccccc4)c(=O)c2c1)-c1cc(OC)c(OC)cc1C3C (stereo not given),> 100 µM,> 100 µM,> 100 µM,> 100 µM,> 100 µM,69.9 µM,24.4 µM,46 µM,51.5 µM,> 63.6 µM,> 100 µM,> 100 µM,57.6 µM,> 100 µM,> 75.9 µM,–,–,–,–,–
CC1(C)OC(C[C@]2(C#N)C[C@H](CCl)OC(C)(C)O2)C[C@@H](C[C@]2(C#N)C[C@H](CCl)OC(C)(C)O2)O1 (stereo not given in full),> 100 µM,> 100 µM,> 100 µM,> 100 µM,> 100 µM,> 100 µM,> 100 µM,> 100 µM,> 100 µM,> 100 µM,> 100 µM,> 100 µM,> 100 µM,> 100 µM,> 100 µM,–,–,–,–,–
